Tested on: MV-4-11 cells
Experiment: Her2 degradation Method 2: MV-4-11 cell survival, Cell Counting Kit-8 (Table 2: inhibition of Hsp90)
Format: cell-based
Settings: Homo sapiens, MV4-11, 72 hours, cell survival by Cell Counting Kit-8, text calls it IC50 for Her2 degradation, read-out: IC50 range of compounds of the invention for inhibition of Hsp90, IC50
Protocol: MV-4-11 cells (20,000 cells/well) were cultured in 96-well plates and maintained at 37° C. for several hours. The cells were treated with a compound of the invention or 17AAG (a positive control) at various concentrations and incubated at 37° C. for 72 hours. Cell survival was measured with Cell Counting Kit-8 (Dojindo Laboratories, Cat. # CK04).

| SMILES | IC50 |
| --- | --- |
| NC(=O)c1nnc(-c2cc3c(cc2O)OCO3)n1-c1ccc(N2CCOCC2)cc1 [Compound 1, 5-(6-hydroxybenzo[d][1,3]-dioxol-5-yl)-4-(4-morpholinophenyl)-4H-1,2,4-triazole-3-carboxamide] | 20 to 50 µM |
| NC(=O)c1nnc(-c2cc3c(cc2O)OCCC3)n1-c1ccc2c(c1)OCO2 [Compound 2, 4-(benzo[d][1,3]dioxol-5-yl)-5-(7-hydroxychroman-6-yl)-4H-1,2,4-triazole-3-carboxamide] | ≤ 10 µM |
| COc1ccc(-n2c(C(N)=O)nnc2-c2cc3c(cc2O)OCC3)cc1 [Compound 3, 5-(6-hydroxy-2,3-dihydrobenzofuran-5-yl)-4-(4-methoxyphenyl)-4H-1,2,4-triazole-3-carboxamide] | 20 to 50 µM |
| COc1ccc(-n2c(C(N)=O)nnc2-c2cc3c(cc2O)OCCC3)cc1 [Compound 4, 5-(7-hydroxychroman-6-yl)-4-(4-methoxyphenyl)-4H-1,2,4-triazole-3-carboxamide] | > 50 µM |
| COc1ccc(-n2c(C(N)=O)nnc2-c2cc3c(cc2O)CCC3)cc1 [Compound 5, 5-(6-hydroxy-2,3-dihydro-1H-inden-5-yl)-4-(4-methoxyphenyl)-4H-1,2,4-triazole-3-carboxamide] | 10 to 20 µM |
| COc1ccc(-n2c(C(N)=O)nnc2-c2c(O)ccc3c2CCCC3)cc1 [Compound 6, 5-(2-hydroxy-5,6,7,8-tetrahydronaphthalen-1-yl)-4-(4-methoxyphenyl)-4H-1,2,4-triazole-3-carboxamide] | 20 to 50 µM |
| COc1ccc(-n2c(C(N)=O)nnc2-c2c(O)ccc3ccccc23)cc1 [Compound 7, 5-(2-hydroxynaphthalen-1-yl)-4-(4-methoxyphenyl)-4H-1,2,4-triazole-3-carboxamide] | 20 to 50 µM |
| COc1ccc(-n2c(C(N)=O)nnc2-c2ccc3c(c2O)CCCC3)cc1 [Compound 8, 5-(1-hydroxy-5,6,7,8-tetrahydronaphthalen-2-yl)-4-(4-methoxyphenyl)-4H-1,2,4-triazole-3-carboxamide] | > 50 µM |

Tested on: Her2
Experiment: Degradation of Her2 in BT-474 cells, Method 1 (Western blot)
Format: cell-based, human
Settings: 0.5 μM, overnight, positive control
Protocol: Human high-Her2 breast carcinoma BT474 (HTB-20), SK-BR-3 (HTB-30) and MCF-7 breast carcinoma (HTB-22) from American Type Culture Collection, VA, USA were grown in Dulbecco's modified Eagle's medium with 4 mM L-glutamine and antibiotics (100 IU/ml penicillin and 100 μg/ml streptomycine; GibcoBRL). To obtain exponential cell growth, cells were trypsinized, counted and seeded at a cell density of 0.5×10^6 cells/ml regularly, every 3 days. All experiments were performed on day 1 after cell passage.
BT-474 cells are treated with 0.5 μM, 2 μM, or 5 μM of 17AAG (a positive control) or 0.5 μM, 2 μM, or 5 μM of a compound of the invention overnight in DMEM medium. After treatment, each cytoplasmic sample is prepared from 1×10^6 cells by incubation of cell lysis buffer (#9803, Cell Signaling Technology) on ice for 10 minutes. The resulting supernatant used as the cytosol fractions is dissolved with sample buffer for SDS-PAGE and run on a SDS-PAGE gel, blotted onto a nitrocellulose membrane by using semi-dry transfer. Non-specific binding to nitrocellulose is blocked with 5% skim milk in TBS with 0.5% Tween at room temperature for 1 hour, then probed with anti-Her2/ErB2 mAb (rabbit IgG, #2242, Cell Signaling) and anti-Tubulin (T9026, Sigma) as housekeeping control protein. […]

| SMILES | degradation of Her2 |
| --- | --- |
| C=CCNC1=C2C[C@@H](C)C[C@H](OC)[C@H](O)[C@@H](C)/C=C(\C)[C@H](OC(N)=O)[C@@H](OC)/C=C\C=C(/C)C(=O)NC(=CC1=O)C2=O [Compound 17AAG, 17-allylamino-17-demethoxygeldanamycin] | partial degradation |
